The values that follow come from publication PMC6930570, “2-Arylidene-1-indandiones as Pleiotropic Agents with Antioxidant and Inhibitory Enzymes Activities” (Molecules, 2019).

Test [1] is described as follows: Superoxide anion radical scavenging activity (PMS/NADPH/NBT). The test is classed as biochemical. As to conditions: 100 μM (stated for compound 3). How it is done:
The compounds have been tested to scavenge superoxide anion radicals. However, no results were recorded under the experimental conditions.
The superoxide anion producing system was set up by mixing PMS, NADPH, and air oxygen. The production of superoxide anion was estimated by the nitrobluetetrazole NBT method. The reaction mixture containing compounds, 3 μM PMS, 78 μM NADPH, and 25 μM NBT in […] phosphate buffer pH 7.4 was incubated for 2 min at room temperature and the absorption was measured at 560 nm against a blank containing PMS. The tested compounds were pre-incubated for 2 min before adding NADPH. Caffeic acid was used as an appropriate standard (76%).

The target in the next test is T1, bovine thrombin (Bos taurus, UniProt P00735).
T1 construct: purchased Sigma Chemical, Co. (St. Louis)
Put plainly: In vitro inhibition of thrombin. The format is biochemical. As to conditions: substrate tosyl-Gly-Pro-Arg-pNA, no = no action under the experimental conditions, read-out: TH% 100 µM (thrombin inhibition). The protocol: It is well known that indandione derivatives exert their anticoagulant activity indirectly by inhibiting prothrombin synthesis in the liver. […] Derivatives 1, 2, 5, 8, 9, 10, and 12 were tested in vitro as possible thrombin inhibitors. Among the tested derivatives compound 8 presented 100% inhibition followed by compounds […] and 10.
As a substrate tosyl-Gly-Pro-Arg-pNA acetate salt was used at 1 mM final concentration. Compounds were dissolved at a final concentration of […] in a Tris-buffer (0.05 M Tris, 0.154 M NaCl, ethanol 5%, pH = 8.0). Three minutes after the addition of bovine thrombin (2.5 unit/mg), the reaction was ended by adding 1 mL acetic acid 50%. The absorption of the released p-nitro-aniline was measured at 405 nm (Table 3). Warfarin and Inogatran were used as reference compounds.

In general, inhibition refers to the change of the read-out against control, counted positive when it falls.

In the case of `O=C(O)/C=C/c1ccc(O)c(O)c1` [Caffeic acid, reference compound], the “superoxide anion scavenging activity” value in test [1] is listed as 76%.

On to `N=C(N)NCCCNC(=O)[C@@H]1CCCCN1C(=O)[C@@H](CC1CCCCC1)NCC(=O)O` [Inogatran, reference compound], for which the inhibition at 100 µM at bovine thrombin turned out to be 98%.
